For 22 molecules, TGI and GI50 results are on record in PubChem BioAssay (NCI).

Holding throughout (test): growth of human tumour cells (NCI), 48 h
Assay [1] deals with EKVX NSCLC.
Assay [2] deals with HT29 colon.
The subject of assay [3] is IGROV1 ovarian.
In assay [4] the test system is KM20L2 colon.
For assay [5], the system named is NCI-H226 lung.
Assay [6] has as its system OVCAR-4 ovarian.
In assay [7] the test system is SNB-19 CNS.
Assay [8] deals with SNB-78 CNS.
Assay [9] relates to SR leukemia.
Assay [10] deals with NCI/ADR-RES ovarian.

Values joined by “and” are separate entries in the source; they are usually repeats but may differ in a detail not shown here. Equal values may be shown once.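 Protocol summary: plate cells (96-well), add compound at 5 concentrations, incubate 48 h, interpolate endpoints linearly. GI50 marks 50% less growth. Definition used: TGI = concentration required for complete inhibition of growth.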 Bounds are passed on as bounds.

In the case of `CCCN(CCCCC(NC(C)=O)C(=O)NCc1ccccc1)C(=O)N(C)N=O` (stereo not drawn), the TGI in assay [1], in assay [2], in [3], in assay [4], in assay [5] and in [6] was greater than 100 µM each time. In addition, the TGI in assay [7] and in assay [8] was greater than 100 µM in each case.

Take `COc1ccc(C(=O)C(c2ccc(OC)cc2)C2(O)C(=O)Nc3ccccc32)cc1` (stereo not drawn): the TGI in [1], in assay [2], in assay [3], in assay [4], in [5] and in assay [7] was greater than 100 µM in each case. The TGI in assay [8] and in assay [9] was greater than 100 µM each time.

In the case of `O=C(O)C(CP(=O)(O)O)=C(Cl)Cl`, the TGI in [1], in assay [2], in assay [3], in assay [4], in [5] and in assay [7] was greater than 100 µM each time. Moreover, the TGI in assay [8] and in assay [9] was greater than 100 µM throughout.

Regarding `COC(=O)C1=C(O)c2cc(OC)c(OC)c(OC)c2[C@H](c2cc(OC)c(OC)c(OC)c2)C1C(=O)OC` (stereo partly drawn), the TGI in [1] was greater than 100 µM; in [2], 61.6 µM; in [3], greater than 100 µM; in [4], 37.5 µM; in [5], greater than 100 µM; in [6], greater than 100 µM. In addition, the TGI in assay [7] and in [8] was greater than 100 µM each time.

For `COC(=O)/C=C1/CCC2[C@@H](C(=O)CC3[C@]2(C)CCC[C@@]3(C)C(=O)OC)C1C` (stereo partly drawn), the TGI in assay [1] was found to be 42.3 µM; in [2], 20.2 µM; in assay [3], 43.6 µM; in [4], 29.5 µM; in assay [5], 46.1 µM; in assay [6], 21.6 µM. The TGI in [7] was found to be 33.4 µM; in assay [8] it was 40.5 µM.

As to `CCCCCCCCCCCCCC(=O)O[C@H]1CC[C@H](NC(=O)[C@H](OC)[C@H](O)[C@@H](O)[C@H](O)/C=C/C(C)C)C(=O)NC1`, the TGI in assay [1] is 36.8 µM and 23.4 µM; in assay [2], 7.29 µM and 12.7 µM; in assay [3], 8.51 µM and 2.71 µM; in [4], 8.34 µM; in assay [5] it was 4.29 µM; in [10] it was 51.2 µM and 26.3 µM. Further, the TGI in assay [6] is 29 µM and 31.3 µM; in [7], 51.2 µM and 25.9 µM; in assay [9] it was 9.3 µM. Moreover, the GI50 in assay [4] was 0.0453 µM; in [5] it was 0.00206 µM; in assay [10], 3.58 µM; in [6], 0.00276 µM; in assay [9], less than 0.001 µM.

Take `COc1cc(/C=C2\[C@H]3c4c(c(OC)c(C)c(OC)c4OC)C[C@@H](C(=O)N2Cc2ccccc2)N3C(=O)OCC(C)C)c(OC)c(C)c1OC`: the TGI in assay [1] was greater than 100 µM; in [2], greater than 100 µM; in [3], greater than 100 µM; in assay [4], greater than 100 µM; in assay [5], 40.9 µM; in [6], greater than 100 µM. Further, the TGI in [7] and in [9] was greater than 100 µM in each case.

As to `CCOC(C)C(/C=N/NC(N)=S)=NNC(N)=S` (stereo not drawn), the TGI in assay [1], in assay [6], in [7], in assay [8] and in [9] was greater than 100 µM throughout.

Regarding `COc1cc(/C=C2/C(=O)N(C(=O)OC(C)C)C(Cc3cc(OC)c(OC)c(C)c3OC)C(=O)N2Cc2ccccc2)c(OC)c(C)c1OC` (stereo not drawn), the TGI in assay [1] was greater than 100 µM; in assay [2], greater than 100 µM; in assay [3], greater than 100 µM; in assay [4], greater than 100 µM; in [5] it was 30 µM; in [6], greater than 100 µM. For the same molecule, the TGI in assay [9] was 51.1 µM.

On to `CC(=O)OC(/C=C1/C=CC(=O)O1)COC(=O)c1ccccc1` (stereo not drawn), for which the TGI in assay [1], in [2], in assay [3], in assay [4], in assay [5] and in assay [6] was greater than 31.2 µM in each case. In addition, the TGI in assay [7] and in assay [8] was greater than 31.2 µM throughout.

Take `CCOC(=O)/C(O)=C(/c1n[nH]c(=O)c2ccccc12)[N+](=O)[O-]`: the TGI in assay [1], in [2], in assay [3], in assay [4], in [5] and in [6] was greater than 100 µM each time. The TGI in assay [7] and in [8] was greater than 100 µM each time.

For `O=S(=O)(O)O.[NH-]C1CCCCC1[NH-].[Pt+2]` (stereo not drawn), the GI50 in assay [1] is greater than 100 µM; in assay [2] it was 63.1 µM; in assay [3] it was greater than 100 µM; in assay [4] it was 35.8 µM; in assay [6] it was 67.2 µM; in assay [7] it was greater than 100 µM. The GI50 in assay [8] is greater than 100 µM. For the same molecule, the TGI in assay [1], in assay [2], in [3], in assay [4], in assay [6] and in assay [7] was greater than 100 µM each time. The TGI in assay [8] was greater than 100 µM.

For the molecule `O=c1/c(=C/c2cccc([N+](=O)[O-])c2)sc2nc3ccccc3n12`, the TGI in [1], in assay [2], in assay [5], in assay [6] and in [8] was greater than 100 µM in each case.

As to `CCOC(=O)C12CCCC1(O)N(NC(=O)c1ccccc1)C(C)=C2C(=O)OC` (stereo not drawn), the TGI in [1], in [2], in assay [3], in assay [4], in [5] and in assay [6] was greater than 100 µM throughout. The TGI in [7] and in [8] was greater than 100 µM each time.

Regarding `COC(=O)C1=C2CCC(=O)[C@@]2(C)C(OC(C)=O)C=CC1` (stereo partly drawn), the TGI in [1], in assay [2], in [3], in assay [4], in assay [5] and in [6] was greater than 100 µM in each case. Besides, the TGI in [8] is greater than 100 µM.

For the molecule `CS(=O)(=O)NNS(=O)(=O)c1cccc([N+](=O)[O-])c1`, the TGI in assay [1], in assay [2], in assay [3], in assay [4], in assay [5] and in assay [6] was greater than 100 µM throughout. The TGI in assay [7] and in assay [9] was greater than 100 µM throughout.

In the case of `O=c1cccccc1NCCOCCNc1cccccc1=O`, the TGI in assay [1], in [2], in assay [3], in [4], in assay [5] and in assay [6] was greater than 100 µM in each case. Further, the TGI in [7] and in [8] was greater than 100 µM in each case.

Turning to `C=CCCC(OCOCCOC)c1cc(C)c(O[Si](C)(C)C(C)(C)C)c(C)c1` (stereo not drawn), the TGI is 63.5 µM in assay [1]; 90.5 µM in [3]; 29 µM in assay [4]; 26.4 µM in assay [5]; 20.7 µM in assay [7]; greater than 100 µM in assay [8].

Turning to `CC1(C)COC(C23C4C5C2C2C3C4C52I)=N1` (stereo not drawn), the TGI in [1], in assay [2], in [3], in assay [4], in assay [5] and in assay [6] was greater than 100 µM throughout. In addition, the TGI in [7] and in assay [8] was greater than 100 µM in each case.

As to `C/C(=C\C(C)COCc1ccccc1)[C@H](COCc1ccccc1)OCc1ccccc1` (stereo partly drawn), the TGI in [1], in assay [2], in assay [3], in [4], in [5] and in assay [6] was greater than 100 µM in each case. The TGI in assay [7] and in assay [8] was greater than 100 µM each time.

For `CC(=O)[CH-]C(=O)c1ccccc1.CC(=O)[CH-]C(=O)c1ccccc1.CC[O-].CC[O-].[Zr+4]`, the GI50 was 91.6 µM in [1]; greater than 100 µM in assay [2]; greater than 100 µM in [3]; greater than 100 µM in assay [4]; greater than 100 µM in assay [5]; greater than 100 µM in assay [6]. Moreover, the GI50 in assay [7] was greater than 100 µM. Further, the TGI in [1], in assay [2], in assay [3], in assay [4], in assay [5] and in assay [6] was greater than 100 µM in each case. Further, the TGI in assay [7] was greater than 100 µM.

Turning to `COc1ccc(C(=O)OCC2OC(n3cnc4c(=S)nc[nH]c43)C(OC(=O)c3ccc(OC)cc3)C2OC(=O)c2ccc(OC)cc2)cc1` (stereo not drawn), the TGI in assay [2], in [3], in assay [4], in assay [5], in assay [6] and in assay [7] was greater than 100 µM throughout. In [9], this molecule had a TGI greater than 100 µM.
